Ends that are not written are not given here.
Columns and labels:
ST2 cells = assay: Cell differentiation of ST2 cells (ALP activity); format: cell-based, mouse; details: for cell differentiation promoting effect on ST2 cells relative to BMP2: at confluent state (FIG. 7), comparison with BMP2; for cell differentiation promoting effect (ALP activity) on ST2 cells: at confluent state, αMEM containing 2% FBS (FIG. 7)
Method: As mouse-derived osteoblasts, cells of the MC3T3 cell strain or ST2 cell strain (purchased from Riken Cell Bank) were used. • (iii) Rat Femur Bone Marrow-derived Mesenchymal Stem Cells (BMMSC)
(§1) As an index of cell differentiation, alkaline phosphatase (ALP) activity of cells was determined. Cells were inoculated in a 24-well culture plate at a ratio of 5×10^3 cells/well, added with the peptide (a) at various concentrations and cultured in DMEM or αMEM containing 2% FBS. One week after the time point when the cells reached a confluent state, ALP activity was determined by the following enzymochemical method (Bessey-Lowry method, Bessey O A, Lowry O H and Brock M J, A method for the rapid determination of alkaline phosphatase with five cubic millimeter of serum, J. Biol. Chem., 164:321-329, 1946).
(§2) The cultured cells were washed with PBS and then disrupted in 10 mM Tris-HCl buffer (pH 7.4, 500 μl) for 40 seconds by using an ultrasonic homogenizer (Handy Sonic model UR-20P, Tomy Seiko) and stirred. Then, 25 μl of this sample liquid was added to 125 μl of ALP buffer (0.1 M carbonate buffer, pH 9.8, 6.7 mM p-nitrophenyl phosphate, 2 mM MgCl2) and incubated at 37° C. for 30 minutes. The reaction was terminated by addition of 125 μl of 0.2 N NaOH, and absorbance was measured at 405 nm by using a microplate reader (Model 550, Bio-Rad Laboratories).
Further, the peptides (a) and (b) and BMP2 were similarly examined by using the ST2 cells and BMMSC cells. The symbol “cont” in the figures indicates the results for the cells cultured in αMEM containing 2% FBS alone, “B” indicates the results for the cells cultured in the medium added only with BMP2, “HN” indicates the results for the cells cultured in the medium added only with the peptide (b), and “PN” indicates the results for the cells cultured in the medium added only with the peptide (a). In the figures, the unit of numerical values shown after “B,” “HN” and “PN” is “ng/ml.”
Further, the peptides (b) and (k) to (n) were similarly examined at a final concentration of 100 ng/ml by using the ST2 cell strain. The symbol “cont” in the figure indicates the results for the cells cultured in DMEM containing 2% FBS alone.

PDL cells [1] = assay: Cell differentiation of PDL cells (alkaline phosphatase activity, Bessey-Lowry method); format: cell-based, human; details: for ALP activity increasing effect on PDL cells relative to BMP2: at confluent state and one week after (FIG. 5, FIG. 6), comparison with BMP2
Excerpt: PDL cells were isolated from a healthy premolar carefully extracted from a patient who visited a hospital to extract teeth for orthodontic treatment so that periodontal ligament should not be damaged as far as possible, and cultured. The extracted tooth was washed with sterilized physiological saline and phosphate-buffered saline (PBS, Nissui), and then periodontal ligament existing in ⅓ of the tooth root at the center was scraped off with a sharp knife. The pieces of periodontal ligament were transferred to a plastic plate and minced into small fragments using a round-blade knife. Tissue fragments were left standing in a plate having a diameter of 35 mm (FALCON) and cultured in Dulbecco's modified Eagle medium (DMEM, Nissui) containing antibiotics (100 U/ml of penicillin G, 100 μg/ml of streptomycin and 250 μg/ml of gentamicin) and 10% fetal bovine serum (FBS, EQUITECH-BIO) at 37° C. under 5% CO2. Then, cells released from the periodontal ligament tissue fragments were subcultured under the same conditions, and the 3rd to 5th generation cells were used for experiments. • (ii) Mouse-derived Osteoblasts
as §1, §2
Further, the ALP activity in DMEM containing 2% FBS and DMEM or αMEM containing 2% FBS added with peptide (c) at various concentrations was also similarly examined. The symbol “cont” in FIG. 4 indicates the results for the cells cultured in DMEM containing 2% FBS alone, “PN” indicates the results for the cells cultured in the medium added only with the peptide (a), and “PC” indicates the results for the cells cultured in the medium added only with the peptide (c). In FIG. 4, “pg” and “ng” represent “pg/ml” and “ng/ml,” respectively.
Further, in addition to the peptide (a) (derived from swine), the human-derived peptide (b) and BMP were similarly examined. The results of ALP activity measurement performed when the cells reached a confluent state are shown in FIG. 5, and the results of ALP activity measurement performed one week after the confluent state was attained are shown in FIG. 6. The symbol “cont” in the figures indicates the results for the cells cultured in DMEM containing 2% FBS alone, “B” indicates the results for the cells cultured in the medium added only with BMP2, “PN” indicates the results for the cells cultured in the medium added only with the peptide (a), and “HN” indicates the results for the cells cultured in the medium added only with the peptide (b) In the figures, the unit of numerical values shown after “B,” “PN” and “HN” is “ng/ml.”

PDL cells [2] = assay: Calcification product forming ability of PDL cells (Dahl's calcium staining, alizarin red S); format: cell-based, human; details: peptide at various concentrations, 10 mM sodium β-glycerophosphate, three weeks after confluent state
Method: The following experiment was performed to examine effect of the peptide on calcification product forming ability of cells.
To assess calcification ability of cells, Dahl's calcium staining was performed. The PDL cells were inoculated on a 24-well culture plate at a ratio of 5×10^3 cells/well, and cultured in 2S-containing DMEM added with the peptide (a) or (c) at various concentrations and adjusted by addition of 10 mM sodium β-glycerophosphate. Three weeks after the cells reached a confluent state, the cells were washed with PBS, fixed with neutrally buffered formalin and stained with alizarin red S (Wako Pure Chemical Industries).

MC3T3 cells = assay: Calcification product forming ability of MC3T3 cells (Dahl's calcium staining); format: cell-based, mouse; details: two weeks after confluent state
Method: To assess calcification ability of cells, Dahl's calcium staining was performed. The PDL cells were inoculated on a 24-well culture plate at a ratio of 5×10^3 cells/well, and cultured in 2S-containing DMEM added with the peptide (a) or (c) at various concentrations and adjusted by addition of 10 mM sodium β-glycerophosphate. […]
Further, the peptide (a), BMP2 and TGFβ were similarly examined by using the MC3T3 cells.

[3] = measured at confluent state and one week after (FIG. 5, FIG. 6), versus control

| Sequence | cell differentiation promoting effect on ST2 cells relative to BMP2 (ST2 cells) | cell differentiation promoting effect (ALP activity) on ST2 cells (ST2 cells) | ALP activity increasing effect on PDL cells relative to BMP2 (PDL cells [1]) | ALP activity of the PDL cells (PDL cells [1]; [3]) | ALP activity of the PDL cells (PDL cells [1]; peptide at various concentrations, 2% FBS medium, one week after confluent state, versus control (FIG. 4)) | calcification ability of the PDL cells (PDL cells [2]) | cell differentiation promoting effect (calcification) on MC3T3 cells (MC3T3 cells) | cell differentiation promoting effect (calcification) on MC3T3 cells relative to BMP2 (MC3T3 cells; comparison with BMP2) |
| --- | --- | --- | --- | --- | --- | --- | --- | --- |
| VPAFPRQPGTPGVASL [Peptide (a)] | comparable to or higher than that of BMP2 | significant cell differentiation promoting effect | comparable to or higher than that of BMP2 | significantly increased | significantly increased | significantly increased | significant cell differentiation promoting effect | comparable to or higher than that of BMP2 |
| VPFFPQQSGTPGMASL [Peptide (b), peptide designed on the portion of human-derived sheathlin protein corresponding to (a)] | comparable to or higher than that of BMP2 | significant cell differentiation promoting effect | comparable to or higher than that of BMP2 | significantly increased | – | – | – | – |
